Patent US6737383B1, “Herbicidal oxadiazolidines” (priority 1999, dated 2004)

Experiments:
blackgrass = assay: Test B pre/postemergence blackgrass; format: in vivo, Alopecurus myosuroides
Procedure, shortened: (§1)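 Response is a visual 0-to-10 score relative to untreated plants, where 0 means no effect and 10 means complete control, taken twelve to sixteen days after application. Treatments went onto soil at planting and onto foliage of 1- to 4-leaf plants, using a surfactant-containing non-phytotoxic solvent.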

surinam grass = assay: Test B pre/postemergence surinam grass; format: in vivo, Brachiaria decumbens
Procedure, shortened: as §1

cocklebur = assay: Test B pre/postemergence cocklebur; format: in vivo, Xanthium strumarium
Procedure, shortened: as §1

corn = assay: Test B pre/postemergence corn; format: in vivo, Zea mays
Procedure, shortened: as §1

crabgrass = assay: Test B pre/postemergence crabgrass; format: in vivo, Digitaria sanguinalis
Procedure, shortened: as §1

giant foxtail = assay: Test B pre/postemergence giant foxtail; format: in vivo, Setaria faberii
Procedure, shortened: as §1

morningglory = assay: Test B pre/postemergence morningglory; format: in vivo, Ipomoea hederacea
Procedure, shortened: as §1

pigweed = assay: Test B pre/postemergence pigweed; format: in vivo, Amaranthus retroflexus
Procedure, shortened: as §1

rape = assay: Test B pre/postemergence rape; format: in vivo, Brassica napus
Procedure, shortened: as §1

soybean = assay: Test B pre/postemergence soybean; format: in vivo, Glycine max
Procedure, shortened: as §1

sugar beet = assay: Test B pre/postemergence sugar beet; format: in vivo, Beta vulgaris
Procedure, shortened: as §1

velvetleaf = assay: Test B pre/postemergence velvetleaf; format: in vivo, Abutilon theophrasti
Procedure, shortened: as §1

wild oat = assay: Test B pre/postemergence wild oat; format: in vivo, Avena fatua
Procedure, shortened: as §1

purple nutsedge = assay: Test B pre/postemergence purple nutsedge; format: in vivo, Cyperus rotundus
Procedure, shortened: as §1

smallflower flatsedge = assay: Test B flood test smallflower flatsedge; format: in vivo, Cyperus difformis
Procedure, shortened: (§2)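 Plants were grown to the 2-leaf stage before treatment with test chemical, then held in a greenhouse for twelve to sixteen days. Injury was visually rated against untreated controls on a 0–10 scale, where 0 is no effect and 10 is complete control.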

bamyardgrass = assay: Test B flood test barnyardgrass; format: in vivo, Echinochloa crus-galli
Procedure, shortened: as §2

[1] = Postemergence, Rate 125 g/ha, scale of 0 to 10 where 0 is no effect and 10 is complete control
[2] = Postemergence, Rate 250 g/ha, scale of 0 to 10, 0 is no effect, 10 is complete control
[3] = Postemergence, Rate 500 g/ha, scale of 0 to 10 where 0 is no effect and 10 is complete control
[4] = Preemergence, Rate 125 g/ha, scale of 0 to 10 where 0 is no effect and 10 is complete control
[5] = Preemergence, Rate 250 g/ha, scale 0 to 10 (0 no effect, 10 complete control)
[6] = Preemergence, Rate 500 g/ha, scale of 0 to 10 where 0 is no effect and 10 is complete control
[7] = Rate 1000 g/ha, Preemergence, scale 0 to 10 (0 no effect, 10 complete control)
[8] = Postemergence, Rate 1000 g/ha, scale 0 to 10 (0 no effect, 10 complete control)
[9] = Pre-emergence, Rate 1000 g/ha, scale 0 to 10 (0 no effect, 10 complete control)
[10] = Rate 125 g/ha, under heading Pre-emergence, flood test species, visual evaluation after twelve to sixteen days
[11] = Rate 250 g/ha, Pre-emergence (flood test species), scale 0 to 10, 0 is no effect, 10 is complete control
[12] = Rate 500 g/ha, Pre-emergence section of Table B, 0 to 10 scale (0 no effect, 10 complete control)

## COC(=O)C(C)n1c(=O)on(C(=O)N(c2ccc(F)cc2)C(C)C)c1=O (stereo not shown) [Compound 616]
blackgrass; [1]
  Plant response rating, Blackgrass: 0
blackgrass; [2]
  Blackgrass plant response rating: 0
blackgrass; [3]
  Plant response rating, Blackgrass: 5
blackgrass; [4]
  Blackgrass plant response rating: 0
blackgrass; [5]
  Plant response rating, Blackgrass: 4
blackgrass; [6]
  Blackgrass plant response rating: 6
blackgrass; [7]
  Plant response rating, Blackgrass: 8
Surinam grass; [1]
  Plant response rating, B. signalgrass: 0
Surinam grass; [2]
  B. signalgrass plant response rating: 1
Surinam grass; [3]
  Plant response rating, B. signalgrass: 4
Surinam grass; [8]
  B. signalgrass plant response rating: 5
Surinam grass; [4]
  B. signalgrass plant response rating: 0
Surinam grass; [5]
  Plant response rating, B. signalgrass: 0
Surinam grass; [6]
  B. signalgrass plant response rating: 1
Surinam grass; [7]
  Plant response rating, B. signalgrass: 6
cocklebur; [1]
  Plant response rating, Cocklebur: 0
cocklebur; [2]
  Cocklebur plant response rating: 0
cocklebur; [3]
  Plant response rating, Cocklebur: 0
cocklebur; [8]
  Cocklebur plant response rating: 3
cocklebur; [4]
  Cocklebur plant response rating: 0
cocklebur; [5]
  Plant response rating, Cocklebur: 0
cocklebur; [6]
  Plant response rating, Cocklebur: 0
cocklebur; [7]
  Plant response rating, Cocklebur: 0
corn; [1]
  Plant response rating, Corn: 0
corn; [2]
  Corn plant response rating: 0
corn; [3]
  Plant response rating, Corn: 0
corn; [8]
  Corn plant response rating: 0
corn; [4]
  Corn plant response rating: 0
corn; [5]
  Plant response rating, Corn: 0
corn; [6]
  Plant response rating, Corn: 0
corn; [7]
  Plant response rating, Corn: 2
crabgrass; [1]
  Plant response rating, Crabgrass: 2
crabgrass; [2]
  Crabgrass plant response rating: 4
crabgrass; [3]
  Plant response rating, Crabgrass: 7
crabgrass; [8]
  Crabgrass plant response rating: 8
crabgrass; [4]
  Crabgrass plant response rating: 0
crabgrass; [5]
  Plant response rating, Crabgrass: 0
crabgrass; [6]
  Plant response rating, Crabgrass: 1
crabgrass; [7]
  Plant response rating, Crabgrass: 6
Giant foxtail; [1]
  Plant response rating, Giant foxtail: 3
Giant foxtail; [2]
  Giant foxtail plant response rating: 3
Giant foxtail; [3]
  Plant response rating, Giant foxtail: 6
Giant foxtail; [8]
  Giant foxtail plant response rating: 7
Giant foxtail; [4]
  Giant foxtail plant response rating: 1
Giant foxtail; [5]
  Plant response rating, Giant foxtail: 7
Giant foxtail; [6]
  Plant response rating, Giant foxtail: 5
Giant foxtail; [7]
  Plant response rating, Giant foxtail: 9
morningglory; [1]
  Plant response rating, Morningglory: 0
morningglory; [2]
  Morningglory plant response rating: 4
morningglory; [3]
  Plant response rating, Morningglory: 10
morningglory; [8]
  Morningglory plant response rating: 10
morningglory; [4]
  Morningglory plant response rating: 0
morningglory; [5]
  Plant response rating, Morningglory: 0
morningglory; [6]
  Plant response rating, Morningglory: 0
morningglory; [7]
  Plant response rating, Morningglory: 0
pigweed; [1]
  Plant response rating, Redroot pigweed: 0
pigweed; [2]
  Redroot pigweed plant response rating: 0
pigweed; [3]
  Plant response rating, Redroot pigweed: 1
pigweed; [8]
  Redroot pigweed plant response rating: 3
pigweed; [4]
  Redroot pigweed plant response rating: 1
pigweed; [5]
  Plant response rating, Redroot pigweed: 8
pigweed; [6]
  Plant response rating, Redroot pigweed: 10
pigweed; [7]
  Plant response rating, Redroot pigweed: 10
rape; [1]
  Plant response rating, Rape: 0
rape; [2]
  Rape plant response rating: 0
rape; [3]
  Plant response rating, Rape: 0
rape; [8]
  Rape plant response rating: 3
rape; [4]
  Rape plant response rating: 0
rape; [5]
  Plant response rating, Rape: 0
rape; [6]
  Plant response rating, Rape: 3
rape; [7]
  Plant response rating, Rape: 6
soybean; [2]
  Soybean plant response rating: 4
soybean; [3]
  Plant response rating, Soybean: 4
soybean; [8]
  Soybean plant response rating: 4
soybean; [4]
  Soybean plant response rating: 0
soybean; [5]
  Plant response rating, Soybean: 0
soybean; [6]
  Plant response rating, Soybean: 0
soybean; [7]
  Plant response rating, Soybean: 5
Sugar beet; [1]
  Plant response rating, Sugarbeets: 0
Sugar beet; [2]
  Sugarbeets plant response rating: 0
Sugar beet; [3]
  Plant response rating, Sugarbeets: 2
Sugar beet; [8]
  Sugarbeets plant response rating: 2
Sugar beet; [4]
  Sugarbeets plant response rating: 0
Sugar beet; [5]
  Plant response rating, Sugarbeets: 0
Sugar beet; [6]
  Plant response rating, Sugarbeets: 1
Sugar beet; [7]
  Plant response rating, Sugarbeets: 7
velvetleaf; [1]
  Plant response rating, Velvetleaf: 0
velvetleaf; [2]
  Velvetleaf plant response rating: 0
velvetleaf; [3]
  Plant response rating, Velvetleaf: 1
velvetleaf; [8]
  Velvetleaf plant response rating: 1
velvetleaf; [4]
  Velvetleaf plant response rating: 0
velvetleaf; [5]
  Plant response rating, Velvetleaf: 0
velvetleaf; [6]
  Plant response rating, Velvetleaf: 4
velvetleaf; [7]
  Plant response rating, Velvetleaf: 5
Wild oat; [1]
  Plant response rating, Wild oats: 0
Wild oat; [2]
  Wild oats plant response rating: 0
Wild oat; [3]
  Plant response rating, Wild oats: 0
Wild oat; [4]
  Wild oats plant response rating: 0
Wild oat; [5]
  Plant response rating, Wild oats: 0
Wild oat; [6]
  Plant response rating, Wild oats: 2
Wild oat; [7]
  Plant response rating, Wild oats: 10
Purple nutsedge; [1]
  Plant response rating, Nutsedge: 0
Purple nutsedge; [2]
  Nutsedge plant response rating: 0
Purple nutsedge; [3]
  Plant response rating, Nutsedge: 0
Purple nutsedge; [5]
  Plant response rating, Nutsedge: 0
Purple nutsedge; [6]
  Plant response rating, Nutsedge: 0
Purple nutsedge; [7]
  Plant response rating, Nutsedge: 0
Smallflower flatsedge; [9]
  S. Flatsedge plant response rating: 0
Smallflower flatsedge; [10]
  S. Flatsedge plant response rating (0 to 10 scale, 0 is no effect, 10 is complete control): 0
Smallflower flatsedge; [11]
  S. Flatsedge plant response rating: 0
Smallflower flatsedge; [12]
  S. Flatsedge plant response rating: 0
bamyardgrass; [9]
  Barnyardgrass plant response rating: 0
bamyardgrass; [10]
  Barnyardgrass plant response rating (0 to 10 scale, 0 is no effect, 10 is complete control): 0
bamyardgrass; [11]
  Barnyardgrass plant response rating: 0
bamyardgrass; [12]
  Barnyardgrass plant response rating: 0
